# Test results published in PMC8214221, “Sequence determinants in the cathelicidin LL-37 that promote inflammation via presentation of RNA to scavenger receptors” (The Journal of Biological Chemistry, 2021).
# Read-outs that look alike come from different tables or passages of the source. Residues, ends and D or L forms follow the SMILES beside them.
# Legend:
# [1] = system: methicillin-resistant Staphylococcus aureus strain USA300; format: cell-based; conditions: for Antimicrobial potency against S. aureus USA300 compared with LL-34 parent peptide: MIC comparison with parent (MIC 25 μM), 18 h
# Excerpt: Since LL-34 was the minimal truncation mutant of LL-37 that retained both antimicrobial and immune modulatory activity, we prepared a series of synthetic peptides with sequential substitutions of alanine at each amino acid position of the LL-34 parent peptide (Table 1). We compared the minimum inhibitory concentration (MIC) for the LL-34 parent peptide and the alanine mutants (LL-34 peptides—L1A and R34A) against methicillin-resistant Staphylococcus aureus strain USA300 (Fig. 1A). LL-34 peptides were incubated at concentrations of 0 to 100 μM with bacteria. The minimal concentration at which no growth was observed was noted after 18 h of incubation. […] Because of these changes in the MIC against S. aureus between the mutants, we investigated the effective toxicity profile of the peptides in normal human epidermal keratinocytes (NHEKs) by lactate dehydrogenase (LDH) release assay (Table 1). […] Most other peptides were cytotoxic at a minimal concentration of 10 μM, whereas LL-34—K15A was toxic at a concentration of 2.5 μM.
# Methicillin-resistant S. aureus USA300 and methicillin-sensitive S. aureus SA113 (American Type Culture Collection 35556) were cultured in 3% tryptic soy broth overnight at 37 °C with shaking at 250 rpm. GAS M49 strain NZ131 was cultured in Todd Hewitt broth supplemented with 1% yeast extract overnight at 37 °C without shaking. E. coli R1 strain RS218 was cultured in LB broth overnight at 37 °C with shaking at 250 rpm. MIC values were determined using a round-bottom 96-well microdilution method with RPMI cell culture media (as a source of Ca^2+ and Mg^2+) supplemented with tryptic soy broth, Todd Hewitt broth/yeast extract, or LB to facilitate growth of the respective bacterial strains. Overnight bacterial cultures were subcultured into fresh broth and grown to midlate log phase indicated by an absorbance at 600 nm value between 0.8 and 1.0 for each bacterial strain. The absorbance was then normalized to provide a concentration of 1 × 10^7 colony-forming units/ml in RPMI medium. The LL-34 parent and alanine scan mutants were serially diluted into the 96-well microtiter plates containing prewarmed RPMI bacterial growth medium. A 10 μl aliquot of the midlate log phase bacteria was inoculated into the 96-well microtiter plates that contained 95 μl of RPMI medium with or without the LL-34 peptide dilutions and incubated for 16 to 18 h at […] with shaking at 200 rpm. Inhibition of growth was determined by measuring the absorbance at 600 nm readings of each well using a microplate reader (Infinite M200 Pro; Tecan). The MIC of each bacterial strain was determined by the lowest peptide concentration that inhibited more than 80% bacterial growth.
# [2] = system: NHEKs, IL-6 secretion in response to U1 dsRNA; assay: IL-6 secretion ELISA in NHEKs; format: cell-based, human; conditions: U1 dsRNA 2.5 μg/ml + peptide 2 μM, 18 h, n = 3
# Experimental: Protein levels of human IL-6 were analyzed from cell supernatant with ELISA (n = 3). Corresponding MIC values of LL-34 peptides L1A–R34A against Staphylococcus aureus USA300 are shown in the heat map. B, human dermal endothelial cells (HDMECs) were treated with either U1 dsRNA (2.5 μg/ml) or a combination of U1 dsRNA (2.5 μg/ml) and LL-34 peptides (Pep 1–Pep 34 and Pep–parent LL-34) at 2 μM for 18 h. IL-6 ELISA results are shown (n = 3). Green bars denote loss of IL-6 protein secretion compared with parent control shown in red. C, helical wheel plot for LL-34. Amino acids with green circles denote specific residues where replacement with an alanine caused the loss of IL-6 secretion compared with parent LL-34 peptide in NHEKs cotreated with U1 dsRNA. D, in the helical wheel plot for LL-34, circled green amino acids indicate that a substitution caused a loss of vetting in HDMEC. E–H, NHEKs were treated with LL-34-parent peptide (LL-34-P), LL-34-F5A, LL-34-I24A, LL-34-F27A, and LL-34-L31A at 2 μM, either individually or in combination with U1 dsRNA (2.5 μg/ml) for 8 h. Gene expression of IL-6, IFNB1, TSLP, and CXCL10 was assessed with qRT-PCR. GAPDH was used as a reference gene (n = 3) (∗p < 0.05; ∗∗∗∗p < 0.0001). One way-ANOVA was used. IL-6, interleukin 6; LL-34, 34-amino acid peptide; MIC, minimum inhibitory concentration, ns, not significant.
# We hypothesized that sequential replacement of each amino acid in LL-34 peptide with a neutral amino acid alanine might reveal the amino acid residues critical for its ability to induce inflammation in response to U1 dsRNA. First, we treated NHEKs and human dermal microvascular endothelial cells (HDMECs) with LL-34 parent peptide and each of the 34 mutants at 2 μM for 18 h and measured the secretion of interleukin 6 (IL-6) in the supernatant by ELISA (Fig. S1, A and B). […] We then treated both NHEKs and HDMECs with a combination of U1 dsRNA (2.5 μg/ml) and the LL-34 parent/mutant peptides at 2 μM for 18 h and measured IL-6 secretion (Fig. 1, A–C). […] A similar pattern of IL-6 release was observed when HDMECs were treated with the peptide library and U1 dsRNA (Fig. 1B).
# Cell culture supernatant was frozen at −80 °C until use for analysis. ELISA was performed with sandwich ELISA kits (R&D Systems) and quantified on a Spectramax Absorbance reader (Molecular Biosystems). Data were analyzed with GraphPad.
# [3] = system: normal human epidermal keratinocytes (NHEKs); assay: LDH release cytotoxicity assay in keratinocytes; format: cell-based; conditions: minimal concentration giving 50% LDH release by NHEKs
# Outline: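 Normal human epidermal keratinocytes were exposed to LL-34 parent and alanine-substituted peptides. Cytotoxicity was read as LDH release in fresh culture supernatants after treatment, using a commercial kit, and reported as the minimal concentration showing toxicity.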
SMILES,Antimicrobial potency against S. aureus USA300 compared with LL-34 parent peptide [1],Antimicrobial potency against S. aureus USA300 compared with LL-34 parent peptide ([1]; listed as IL3a),"IL-6 protein secretion, cotreatment with U1 dsRNA, vs U1 dsRNA + LL-34 parent [2]",Minimal cytotoxic concentration in NHEK (LD50) [3],"MIC against S. aureus USA300 ([1]; USA300, 18 h)"
CC[C@H](C)[C@H](NC(=O)[C@H](CCCNC(=N)N)NC(=O)[C@H](CCC(N)=O)NC(=O)[C@@H](NC(=O)[C@@H](NC(=O)[C@H](CCCNC(=N)N)NC(=O)[C@H](CCCCN)NC(=O)[C@H](Cc1ccccc1)NC(=O)[C@H](CCC(=O)O)NC(=O)[C@H](CCCCN)NC(=O)CNC(=O)[C@H](C)NC(=O)[C@H](CCCCN)NC(=O)[C@H](CCC(=O)O)NC(=O)[C@H](CCCCN)NC(=O)[C@H](CO)NC(=O)[C@H](CCCCN)NC(=O)[C@H](CCCNC(=N)N)NC(=O)[C@H](Cc1ccccc1)NC(=O)[C@H](Cc1ccccc1)NC(=O)[C@H](CC(=O)O)NC(=O)CNC(=O)[C@H](CC(C)C)NC(=O)[C@@H](N)CC(C)C)[C@@H](C)CC)C(C)C)C(=O)N[C@@H](CCCCN)C(=O)N[C@@H](CC(=O)O)C(=O)N[C@@H](Cc1ccccc1)C(=O)N[C@@H](CC(C)C)C(=O)N[C@@H](CCCNC(=N)N)C(=O)N[C@@H](CC(N)=O)C(=O)N[C@@H](CC(C)C)C(=O)N[C@H](C(=O)N1CCC[C@H]1C(=O)N[C@@H](CCCNC(=N)N)C(=O)O)C(C)C [LL-34—I13A] (H-LLGDFFRKSKEKAGKEFKRIVQRIKDFLRNLVPR-OH),killed S. aureus USA300 more potently,gained antimicrobial activity,reduced secretion of IL-6 protein,5 µM,–
CC[C@H](C)[C@H](NC(=O)[C@H](C)NC(=O)[C@H](CCC(=O)O)NC(=O)[C@H](CCCCN)NC(=O)[C@H](CO)NC(=O)[C@H](CCCCN)NC(=O)[C@H](CCCNC(=N)N)NC(=O)[C@H](Cc1ccccc1)NC(=O)[C@H](Cc1ccccc1)NC(=O)[C@H](CC(=O)O)NC(=O)CNC(=O)[C@H](CC(C)C)NC(=O)[C@@H](N)CC(C)C)C(=O)NCC(=O)N[C@@H](CCCCN)C(=O)N[C@@H](CCC(=O)O)C(=O)N[C@@H](Cc1ccccc1)C(=O)N[C@@H](CCCCN)C(=O)N[C@@H](CCCNC(=N)N)C(=O)N[C@H](C(=O)N[C@H](C(=O)N[C@@H](CCC(N)=O)C(=O)N[C@@H](CCCNC(=N)N)C(=O)N[C@H](C(=O)N[C@@H](CCCCN)C(=O)N[C@@H](CC(=O)O)C(=O)N[C@@H](Cc1ccccc1)C(=O)N[C@@H](CC(C)C)C(=O)N[C@@H](CCCNC(=N)N)C(=O)N[C@@H](CC(N)=O)C(=O)N[C@@H](CC(C)C)C(=O)N[C@H](C(=O)N1CCC[C@H]1C(=O)N[C@@H](CCCNC(=N)N)C(=O)O)C(C)C)[C@@H](C)CC)C(C)C)[C@@H](C)CC [LL-34—K12A] (H-LLGDFFRKSKEAIGKEFKRIVQRIKDFLRNLVPR-OH),reduced MIC compared with the parent peptide,–,reduced secretion of IL-6 protein,5 µM,–
CC[C@H](C)[C@H](NC(=O)[C@H](CCCCN)NC(=O)[C@H](CCC(=O)O)NC(=O)[C@H](CCCCN)NC(=O)[C@H](CO)NC(=O)[C@H](CCCCN)NC(=O)[C@H](CCCNC(=N)N)NC(=O)[C@H](Cc1ccccc1)NC(=O)[C@H](Cc1ccccc1)NC(=O)[C@H](CC(=O)O)NC(=O)CNC(=O)[C@H](CC(C)C)NC(=O)[C@@H](N)CC(C)C)C(=O)NCC(=O)N[C@@H](CCCCN)C(=O)N[C@@H](CCC(=O)O)C(=O)N[C@@H](Cc1ccccc1)C(=O)N[C@@H](CCCCN)C(=O)N[C@@H](CCCNC(=N)N)C(=O)N[C@H](C(=O)N[C@H](C(=O)N[C@@H](CCC(N)=O)C(=O)N[C@@H](CCCNC(=N)N)C(=O)N[C@H](C(=O)N[C@@H](CCCCN)C(=O)N[C@@H](CC(=O)O)C(=O)N[C@@H](Cc1ccccc1)C(=O)N[C@@H](CC(C)C)C(=O)N[C@@H](CCCNC(=N)N)C(=O)N[C@@H](CC(N)=O)C(=O)N[C@@H](CC(C)C)C(=O)N[C@H](C(=O)N1CCC[C@H]1C(=O)N[C@@H](C)C(=O)O)C(C)C)[C@@H](C)CC)C(C)C)[C@@H](C)CC [LL-34—R34A] (H-LLGDFFRKSKEKIGKEFKRIVQRIKDFLRNLVPA-OH),reduced MIC compared with the parent peptide,–,–,10 µM,–
CC[C@H](C)[C@H](NC(=O)[C@H](CCCCN)NC(=O)[C@H](CCC(=O)O)NC(=O)[C@H](CCCCN)NC(=O)[C@H](CO)NC(=O)[C@H](CCCCN)NC(=O)[C@H](CCCNC(=N)N)NC(=O)[C@H](Cc1ccccc1)NC(=O)[C@H](Cc1ccccc1)NC(=O)[C@H](CC(=O)O)NC(=O)CNC(=O)[C@H](CC(C)C)NC(=O)[C@@H](N)CC(C)C)C(=O)NCC(=O)N[C@@H](CCCCN)C(=O)N[C@@H](CCC(=O)O)C(=O)N[C@@H](Cc1ccccc1)C(=O)N[C@@H](CCCCN)C(=O)N[C@@H](CCCNC(=N)N)C(=O)N[C@H](C(=O)N[C@H](C(=O)N[C@@H](CCC(N)=O)C(=O)N[C@@H](CCCNC(=N)N)C(=O)N[C@H](C(=O)N[C@@H](CCCCN)C(=O)N[C@@H](CC(=O)O)C(=O)N[C@@H](Cc1ccccc1)C(=O)N[C@@H](CC(C)C)C(=O)N[C@@H](CCCNC(=N)N)C(=O)N[C@@H](CC(N)=O)C(=O)N[C@@H](CC(C)C)C(=O)N[C@H](C(=O)N1CCC[C@H]1C(=O)N[C@@H](CCCNC(=N)N)C(=O)O)C(C)C)[C@@H](C)CC)C(C)C)[C@@H](C)CC [LL-34—parent] (H-LLGDFFRKSKEKIGKEFKRIVQRIKDFLRNLVPR-OH),–,–,–,5 µM,25 µM
